Experimental data from PMC5218480 (PLoS ONE, 2017).

System: MV-4-11 cells
Experiment: Gene expression microarray analysis (Affymetrix PrimeView) and GSEA
Format: cell-based, human
Set-up: RFU PODN (11730768_x_at) / Fold change /veh PODN (11730768_x_at) / RFU LINC00158 (11744669_a_at) / Fold change /veh LINC00158 (11744669_a_at) / RFU DUSP10 (11751237_a_at) / Fold change /veh DUSP10 (11751237_a_at) / RFU ID3 (11757404_x_at) / Fold change /veh ID3 (11757404_x_at) / RFU PLEKHG5 (11737974_s_at) / Fold change /veh PLEKHG5 (11737974_s_at) / RFU LRRC4B (11730491_at) / Fold change /veh LRRC4B (11730491_at) / RFU GIMAP4 (11747438_a_at) / Fold change /veh GIMAP4 (11747438_a_at) / RFU KRT8 (11758183_x_at) / Fold change /veh KRT8 (11758183_x_at) / RFU CNN1 (11734310_a_at) / Fold change /veh CNN1 (11734310_a_at) / RFU VPS37D (11726825_at) / Fold change /veh VPS37D (11726825_at) / RFU C10orf10 (11716522_x_at) / Fold change /veh C10orf10 (11716522_x_at) / RFU KIR2DL2 /// KIR2DL4 /// KIR2DL5A /// KIR2DL5B /// KIR2DS1 /// KIR2DS2 /// KIR2DS3 /// KIR2DS4 /// KIR3DL3 /// KIR3DL3 /// KIR3DS1 (11738374_at) / Fold change /veh KIR2DL2 /// KIR2DL4 /// KIR2DL5A /// KIR2DL5B /// KIR2DS1 /// KIR2DS2 /// KIR2DS3 /// KIR2DS4 /// KIR3DL3 /// KIR3DL3 /// KIR3DS1 (11738374_at) / RFU C1QL1 (11718748_at) / Fold change /veh C1QL1 (11718748_at) / RFU TMPRSS4 (11747572_a_at) / Fold change /veh TMPRSS4 (11747572_a_at) / RFU HAMP (11756126_x_at) / Fold change /veh HAMP (11756126_x_at) / RFU RNFT2 (11725882_a_at) / Fold change /veh RNFT2 (11725882_a_at) / RFU NR4A2 (11747474_a_at) / Fold change /veh NR4A2 (11747474_a_at) / RFU ABCC12 (11746883_a_at) / Fold change /veh ABCC12 (11746883_a_at) / RFU TMEM136 (11760407_x_at) / Fold change /veh TMEM136 (11760407_x_at) / RFU CLDN22 /// WWC2 (11732394_at) / Fold change /veh CLDN22 /// WWC2 (11732394_at) / RFU HLA-DPB1 (11760878_x_at) / Fold change /veh HLA-DPB1 (11760878_x_at) / RFU SPINT1 (11716480_a_at) / Fold change /veh SPINT1 (11716480_a_at) / RFU GAP43 (11754022_s_at) / Fold change /veh GAP43 (11754022_s_at) / RFU A4GNT (11735810_at) / Fold change /veh A4GNT (11735810_at) / RFU PRB3 (11715151_x_at) / Fold change /veh PRB3 (11715151_x_at) / RFU TUBB4B (11761932_at) / Fold change /veh TUBB4B (11761932_at) / RFU CAPN14 (11732068_a_at) / Fold change /veh CAPN14 (11732068_a_at) / RFU TMCC2 (11721928_a_at) / Fold change /veh TMCC2 (11721928_a_at) / RFU IRGQ (11745062_a_at) / Fold change /veh IRGQ (11745062_a_at) / RFU FAM174B (11720279_a_at) / Fold change /veh FAM174B (11720279_a_at) / RFU TMPRSS4 (11748680_a_at) / Fold change /veh TMPRSS4 (11748680_a_at) / RFU FAM212B (11763350_a_at) / Fold change /veh FAM212B (11763350_a_at) / RFU PLEKHG5 (11743358_a_at) / Fold change /veh PLEKHG5 (11743358_a_at) / RFU ZSCAN30 (11745921_a_at) / Fold change /veh ZSCAN30 (11745921_a_at) / RFU CMKLR1 (11741424_a_at) / Fold change /veh CMKLR1 (11741424_a_at) / RFU LOC101060620 /// MAPK8IP1 (11723275_at) / Fold change /veh LOC101060620 /// MAPK8IP1 (11723275_at) / RFU SPTSSB (11747773_x_at) / Fold change /veh SPTSSB (11747773_x_at) / RFU PRSS12 (11739890_at) / Fold change /veh PRSS12 (11739890_at) / RFU BIN1 (11741810_x_at) / Fold change /veh BIN1 (11741810_x_at) / RFU WNT11 (11732464_a_at) / Fold change /veh WNT11 (11732464_a_at) / RFU C10orf10 (11716521_a_at) / Fold change /veh C10orf10 (11716521_a_at) / RFU C5orf56 (11738089_at) / Fold change /veh C5orf56 (11738089_at) / RFU CYB561 (11721691_x_at) / Fold change /veh CYB561 (11721691_x_at) / RFU ANKRD19P (11752326_a_at) / Fold change /veh ANKRD19P (11752326_a_at) / RFU OR2T12 /// OR2T33 /// OR2T8 (11738714_s_at) / Fold change /veh OR2T12 /// OR2T33 /// OR2T8 (11738714_s_at) / RFU VCAN (11748164_a_at) / Fold change /veh VCAN (11748164_a_at) / RFU JSRP1 (11732532_at) / Fold change /veh JSRP1 (11732532_at) / RFU KRTAP10-11 (11738290_x_at) / Fold change /veh KRTAP10-11 (11738290_x_at) / RFU MYO3A (11730013_a_at) / Fold change /veh MYO3A (11730013_a_at) / RFU EBF3 (11725865_a_at) / Fold change /veh EBF3 (11725865_a_at) / RFU CAMK2N1 (11719241_x_at) / Fold change /veh CAMK2N1 (11719241_x_at) / RFU C5orf56 (11738088_a_at) / Fold change /veh C5orf56 (11738088_a_at) / RFU OLFML3 (11715873_a_at) / Fold change /veh OLFML3 (11715873_a_at) / RFU LOC100653217 /// NTM (11731650_a_at) / Fold change /veh LOC100653217 /// NTM (11731650_a_at) / RFU MAPK11 (11762145_a_at) / Fold change /veh MAPK11 (11762145_a_at) / RFU FIZ1 (11724087_x_at) / Fold change /veh FIZ1 (11724087_x_at) / RFU OASL (11726364_x_at) / Fold change /veh OASL (11726364_x_at) / RFU SOX15 (11748057_x_at) / Fold change /veh SOX15 (11748057_x_at) / RFU CD79A (11719716_a_at) / Fold change /veh CD79A (11719716_a_at) / RFU HIST1H1D (11736915_at) / Fold change /veh HIST1H1D (11736915_at) / RFU CASKIN2 (11723855_a_at) / Fold change /veh CASKIN2 (11723855_a_at) / RFU LOC730098 (11760151_x_at) / Fold change /veh LOC730098 (11760151_x_at) / RFU OR4N2 (11742367_at) / Fold change /veh OR4N2 (11742367_at) / RFU PRRT2 (11749266_a_at) / Fold change /veh PRRT2 (11749266_a_at) / RFU SNX32 (11753110_a_at) / Fold change /veh SNX32 (11753110_a_at) / RFU CDHR5 (11726645_a_at) / Fold change /veh CDHR5 (11726645_a_at) / RFU RCAN1 (11760418_a_at) / Fold change /veh RCAN1 (11760418_a_at) / RFU FAM167A (11723789_a_at) / Fold change /veh FAM167A (11723789_a_at) / RFU FAM26E (11764081_at) / Fold change /veh FAM26E (11764081_at) / RFU ISYNA1 (11749810_s_at) / Fold change /veh ISYNA1 (11749810_s_at) / RFU ACY1 (11761880_at) / Fold change /veh ACY1 (11761880_at) / RFU 11764098_at / Fold change /veh 11764098_at / RFU SAMD14 (11745864_x_at) / Fold change /veh SAMD14 (11745864_x_at) / RFU NPB (11741838_a_at) / Fold change /veh NPB (11741838_a_at) / RFU TMPRSS6 (11731388_a_at) / Fold change /veh TMPRSS6 (11731388_a_at) / RFU KRTAP10-2 (11738614_at) / Fold change /veh KRTAP10-2 (11738614_at) / RFU ARHGAP8 /// PRR5-ARHGAP8 (11727945_x_at) / Fold change /veh ARHGAP8 /// PRR5-ARHGAP8 (11727945_x_at) / RFU KRTAP5-7 /// NADSYN1 (11734609_at) / Fold change /veh KRTAP5-7 /// NADSYN1 (11734609_at) / RFU RASL12 (11751679_a_at) / Fold change /veh RASL12 (11751679_a_at) / RFU CDKN2B (11736163_a_at) / Fold change /veh CDKN2B (11736163_a_at) / RFU PRF1 (11729649_at) / Fold change /veh PRF1 (11729649_at) / RFU, ZNF638 /// ZNF638-IT1 / Fold change vs veh, ZNF638 /// ZNF638-IT1 / RFU, PANK3 / Fold change vs veh, PANK3 / RFU, SH3YL1 / Fold change vs veh, SH3YL1 / RFU, ZEB2 / Fold change vs veh, ZEB2 / RFU, NRIP1 / Fold change vs veh, NRIP1 / RFU, PTTG1IP / Fold change vs veh, PTTG1IP / RFU, CAPN2 / Fold change vs veh, CAPN2 / RFU, MED14 / Fold change vs veh, MED14 / RFU, SNORA58 / Fold change vs veh, SNORA58 / RFU, C1orf63 / Fold change vs veh, C1orf63 / RFU, LRRFIP1 / Fold change vs veh, LRRFIP1 / RFU, NDUFAF7 / Fold change vs veh, NDUFAF7 / RFU, SLC12A2 / Fold change vs veh, SLC12A2 / RFU, IBTK / Fold change vs veh, IBTK / RFU, ESF1 / Fold change vs veh, ESF1 / Fold change vs veh, TMEM50B / RFU, TAOK1 / Fold change vs veh, TAOK1 / RFU, ACBD3 / Fold change vs veh, ACBD3 / RFU, TMA16 / Fold change vs veh, TMA16 / RFU, RWDD3 / Fold change vs veh, RWDD3 / RFU, BCAT1 / Fold change vs veh, BCAT1 / RFU, EDEM3 / Fold change vs veh, EDEM3 / RFU, TMEM33 / Fold change vs veh, TMEM33 / RFU, WDR75 / Fold change vs veh, WDR75 / RFU, AHCTF1 / Fold change vs veh, AHCTF1 / RFU, TFRC / Fold change vs veh, TFRC / RFU, ZDHHC17 / Fold change vs veh, ZDHHC17 / RFU, NOM1 / Fold change vs veh, NOM1 / RFU, ARL8B / Fold change vs veh, ARL8B / RFU, ZBTB11 / Fold change vs veh, ZBTB11 / RFU, TAMM41 / Fold change vs veh, TAMM41 / RFU, KIAA1704 /// LOC100996395 / Fold change vs veh, KIAA1704 /// LOC100996395 / RFU, ING1 / Fold change vs veh, ING1 / RFU, TRMT61B / Fold change vs veh, TRMT61B / RFU, FUBP3 / Fold change vs veh, FUBP3 / RFU, TP53 / Fold change vs veh, TP53 / RFU, TNKS2 / Fold change vs veh, TNKS2 / RFU, ZFP14 / Fold change vs veh, ZFP14 / RFU, ACTR2 / Fold change vs veh, ACTR2 / RFU, PPP3R1 / Fold change vs veh, PPP3R1 / RFU, PIK3R1 / Fold change vs veh, PIK3R1 / RFU, HNRNPA1 / Fold change vs veh, HNRNPA1 / RFU, RNF170 / Fold change vs veh, RNF170 / RFU, ZNF28 / Fold change vs veh, ZNF28 / RFU, RNGTT / Fold change vs veh, RNGTT / RFU, OGT / Fold change vs veh, OGT / RFU, BRD1 / Fold change vs veh, BRD1 / RFU, MARS / Fold change vs veh, MARS / RFU, ZNF655 / Fold change vs veh, ZNF655 / RFU, FAHD1 / Fold change vs veh, FAHD1 / RFU, BDP1 / Fold change vs veh, BDP1 / RFU, LRRCC1 / Fold change vs veh, LRRCC1 / RFU, ARID1A / Fold change vs veh, ARID1A / RFU, ZNF146 / Fold change vs veh, ZNF146 / RFU, ZNF330 / Fold change vs veh, ZNF330 / RFU, GPN3 / Fold change vs veh, GPN3 / RFU, C9orf123 / Fold change vs veh, C9orf123 / RFU, N4BP2L2 / Fold change vs veh, N4BP2L2 / RFU, ARFIP1 / Fold change vs veh, ARFIP1 / RFU, FAM179B / Fold change vs veh, FAM179B / RFU, BCL10 / Fold change vs veh, BCL10 / RFU, UHRF1BP1L / Fold change vs veh, UHRF1BP1L / RFU, BET1 / Fold change vs veh, BET1 / RFU, CNOT2 / Fold change vs veh, CNOT2 / RFU, ZNF268 / Fold change vs veh, ZNF268 / Fold change vs veh, ZNF507 / RFU, DGCR2 / Fold change vs veh, DGCR2 / RFU, WDSUB1 / Fold change vs veh, WDSUB1 / Fold change vs veh, HSP90B1 /// MIR3652 / RFU, ADSS / Fold change vs veh, ADSS / RFU, GK / Fold change vs veh, GK / RFU, ZNF148 / Fold change vs veh, ZNF148 / RFU, TAF9 / Fold change vs veh, TAF9 / RFU, SLC1A5 / Fold change vs veh, SLC1A5 / RFU, SLMO2 / Fold change vs veh, SLMO2 / RFU, ABCC4 / Fold change vs veh, ABCC4 / RFU, LOC101060439 /// RAP1B / Fold change vs veh, LOC101060439 /// RAP1B / RFU, RFX7 / Fold change vs veh, RFX7 / RFU, GTPBP10 / Fold change vs veh, GTPBP10 / RFU, CNEP1R1 / Fold change vs veh, CNEP1R1 / RFU, BIVM-ERCC5 /// ERCC5 / Fold change vs veh, BIVM-ERCC5 /// ERCC5 / RFU, ILF3 / Fold change vs veh, ILF3 / RFU 11762660_at / Fold change /veh 11762660_at / RFU VCAN (11757783_s_at) / Fold change /veh VCAN (11757783_s_at) / RFU DDX43 (11728927_at) / Fold change /veh DDX43 (11728927_at) / RFU KRT8 (11758188_x_at) / Fold change /veh KRT8 (11758188_x_at) / RFU NKD1 (11759106_at) / Fold change /veh NKD1 (11759106_at) / RFU SRD5A1 (11742802_a_at) / Fold change /veh SRD5A1 (11742802_a_at) / RFU TPSAB1 /// TPSB2 (11721975_s_at) / Fold change /veh TPSAB1 /// TPSB2 (11721975_s_at) / RFU GSTM3 (11746129_a_at) / Fold change /veh GSTM3 (11746129_a_at) / RFU IL23R (11737362_x_at) / Fold change /veh IL23R (11737362_x_at) / RFU TMEM51 (11727254_a_at) / Fold change /veh TMEM51 (11727254_a_at) / RFU PIWIL2 (11732686_x_at) / Fold change /veh PIWIL2 (11732686_x_at) / RFU ORM1 (11744905_x_at) / Fold change /veh ORM1 (11744905_x_at) / RFU CCDC152 (11743942_at) / Fold change /veh CCDC152 (11743942_at) / RFU ECM1 (11717891_a_at) / Fold change /veh ECM1 (11717891_a_at) / RFU IL23R (11748794_a_at) / Fold change /veh IL23R (11748794_a_at) / RFU TNFAIP8L3 (11732012_x_at) / Fold change /veh TNFAIP8L3 (11732012_x_at) / RFU MBOAT4 (11741988_at) / Fold change /veh MBOAT4 (11741988_at) / RFU 11764193_at / Fold change /veh 11764193_at / RFU TMEM53 (11763286_at) / Fold change /veh TMEM53 (11763286_at) / RFU MAGEB2 (11727129_at) / Fold change /veh MAGEB2 (11727129_at) / RFU TMEM200A (11744735_a_at) / Fold change /veh TMEM200A (11744735_a_at) / RFU CCDC152 (11751479_a_at) / Fold change /veh CCDC152 (11751479_a_at) / RFU FAM211A (11726209_a_at) / Fold change /veh FAM211A (11726209_a_at) / RFU RGS16 (11746705_a_at) / Fold change /veh RGS16 (11746705_a_at) / RFU VCAN (11755009_s_at) / Fold change /veh VCAN (11755009_s_at) / RFU RHOB (11743442_s_at) / Fold change /veh RHOB (11743442_s_at) / RFU RGS16 (11720943_a_at) / Fold change /veh RGS16 (11720943_a_at) / RFU RGS16 (11720944_at) / Fold change /veh RGS16 (11720944_at) / RFU, VPS4B / Fold change vs veh, VPS4B / RFU, CREB1 / Fold change vs veh, CREB1 / RFU, DNAJC13 / Fold change vs veh, DNAJC13 / RFU, GNAQ / Fold change vs veh, GNAQ / RFU, CDK5R1 / Fold change vs veh, CDK5R1 / RFU, ZRANB3 / Fold change vs veh, ZRANB3 / RFU, CUL4A / Fold change vs veh, CUL4A / RFU, CCNY / Fold change vs veh, CCNY / RFU, UFL1 / Fold change vs veh, UFL1 / RFU, COG3 / Fold change vs veh, COG3 / RFU, DIAPH2 / Fold change vs veh, DIAPH2 / RFU, SKA2 / Fold change vs veh, SKA2 / RFU, AFF3 / Fold change vs veh, AFF3 / RFU, LMF1 / Fold change vs veh, LMF1 / RFU, IPO11 / Fold change vs veh, IPO11 / RFU, DFFB / Fold change vs veh, DFFB / RFU, FOXP1 / Fold change vs veh, FOXP1 / RFU, CARD8 / Fold change vs veh, CARD8 / RFU, STRN3 / Fold change vs veh, STRN3 / RFU, ADK / Fold change vs veh, ADK / RFU, RASSF2 / Fold change vs veh, RASSF2 / RFU, WIPF1 / Fold change vs veh, WIPF1 / RFU, LARP1B / Fold change vs veh, LARP1B / RFU, RASA1 / Fold change vs veh, RASA1 / RFU, RB1 / Fold change vs veh, RB1 / RFU, PPFIA1 / Fold change vs veh, PPFIA1 / RFU, MAT2A / Fold change vs veh, MAT2A / RFU, CCT5 / Fold change vs veh, CCT5 / RFU, WDR92 / Fold change vs veh, WDR92 / RFU, CUX1 / Fold change vs veh, CUX1 / RFU, TTC7A / Fold change vs veh, TTC7A / RFU, TMEM135 / Fold change vs veh, TMEM135 / RFU, DEPTOR / Fold change vs veh, DEPTOR / RFU, CPM / Fold change vs veh, CPM / RFU, DNAJB6 / Fold change vs veh, DNAJB6 / RFU, CACNA2D3 / Fold change vs veh, CACNA2D3 / RFU, DTX4 / Fold change vs veh, DTX4 / RFU, TFCP2 / Fold change vs veh, TFCP2 / RFU, GMCL1 /// GMCL1P1 / Fold change vs veh, GMCL1 /// GMCL1P1 / RFU, AEBP2 / Fold change vs veh, AEBP2 / RFU, SNHG1 /// SNORD22 /// SNORD25 /// SNORD26 /// SNORD27 /// SNORD28 /// SNORD29 /// SNORD31 / Fold change vs veh, SNHG1 /// SNORD22 /// SNORD25 /// SNORD26 /// SNORD27 /// SNORD28 /// SNORD29 /// SNORD31 / Fold change (Aza/veh), C12orf56 (ProbeSet 11735607_a_at) / Fold change (ACY-1035/veh), C12orf56 (ProbeSet 11735607_a_at) / Fold change (Aza/veh), FGFR1OP (ProbeSet 11751329_s_at) / Fold change (ACY-1035/veh), FGFR1OP (ProbeSet 11751329_s_at) / Fold change (Aza/veh), VPS36 (ProbeSet 11739960_a_at) / Fold change (ACY-1035/veh), VPS36 (ProbeSet 11739960_a_at) / RFU SYPL1 (11715823_x_at) / Fold change /veh SYPL1 (11715823_x_at) / RFU IGFBP7 (11715501_s_at) / Fold change /veh IGFBP7 (11715501_s_at) / RFU REEP3 (11722064_at) / Fold change /veh REEP3 (11722064_at) / RFU IGLL1 (11728026_x_at) / Fold change /veh IGLL1 (11728026_x_at): dose or concentration left out as unconfirmed
Settings: MV-4-11 cells, 48 hours

Q: How did the “RFU GSTM3 (11746129_a_at)” value turn out when `Nc1ncn([C@@H]2O[C@H](CO)[C@@H](O)[C@H]2O)c(=O)n1` [azacitidine] was run?
A: 15.07 RFU
